pIC50: −log10 of the molar value.
Tests used:
Assay in all cases: cells
Format in all cases: functional, cell-based, Homo sapiens
EW-24 = conditions: Homo sapiens, EW-24;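 also: human EW-24 cancer cell line, growth inhibition read out via a cell viability assay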
Description: SANGER: Inhibition of human EW-24 cell growth in a cell viability assay.

BB65-RCC = conditions: Homo sapiens, BB65-RCC;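 also: growth inhibition of the cell line, measured with a cell viability assay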
Description: SANGER: Inhibition of human BB65-RCC cell growth in a cell viability assay.

IST-MEL1 = conditions: Homo sapiens, IST-MEL1;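 also: growth inhibition of the cell line, read out with a cell viability assay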
Description: SANGER: Inhibition of human IST-MEL1 cell growth in a cell viability assay.

BB30-HNC = conditions: Homo sapiens, BB30-HNC;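 also: growth inhibition of the cultured cell line, read out by a cell viability assay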
Description: SANGER: Inhibition of human BB30-HNC cell growth in a cell viability assay.

SW 962 = conditions: Homo sapiens, SW 962;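 also: growth inhibition of human SW962 cells, read out by a cell viability assay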
Description: SANGER: Inhibition of human SW962 cell growth in a cell viability assay.

OCUB-M = conditions: Homo sapiens, OCUB-M;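 also: growth inhibition of the cancer cell line, read out through a cell viability assay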
Description: SANGER: Inhibition of human OCUB-M cell growth in a cell viability assay.

CGTH-W-1 = conditions: Homo sapiens, CGTH-W-1;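 also: growth inhibition of human CGTH-W-1 cells measured by cell viability assay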
Description: SANGER: Inhibition of human CGTH-W-1 cell growth in a cell viability assay.

GR-ST = conditions: Homo sapiens, GR-ST
Description: SANGER: Inhibition of human GR-ST cell growth in a cell viability assay.

NCI-H747 = conditions: Homo sapiens, NCI-H747;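 also: growth inhibition of human NCI-H747 cells, read out by a cell viability assay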
Description: SANGER: Inhibition of human NCI-H747 cell growth in a cell viability assay.

TE-5 = conditions: Homo sapiens, TE-5;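 also: inhibition of cell growth, read out by a cell viability assay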
Description: SANGER: Inhibition of human TE-5 cell growth in a cell viability assay.

GCIY = conditions: Homo sapiens, GCIY;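 also: growth inhibition of the human GCIY cell line, read out by a cell viability assay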
Description: SANGER: Inhibition of human GCIY cell growth in a cell viability assay.

D283 Med = conditions: Homo sapiens, D283 Med
Description: SANGER: Inhibition of human D-283MED cell growth in a cell viability assay.

L-428 = conditions: Homo sapiens, L-428
Description: SANGER: Inhibition of human L-428 cell growth in a cell viability assay.

NCI-H1395 = conditions: Homo sapiens, NCI-H1395;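 also: cell viability assay read-out quantifying reduced proliferation of human NCI-H1395 cells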
Description: SANGER: Inhibition of human NCI-H1395 cell growth in a cell viability assay.

8-MG-BA = conditions: Homo sapiens, 8-MG-BA;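 also: growth inhibition of 8-MG-BA cells, read out with a cell viability assay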
Description: SANGER: Inhibition of human 8-MG-BA cell growth in a cell viability assay.

SF-268 = conditions: Homo sapiens, SF-268;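 also: growth inhibition of SF-268 cells determined with a cell viability assay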
Description: SANGER: Inhibition of human SF268 cell growth in a cell viability assay.

NOMO-1 = conditions: Homo sapiens, NOMO-1;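 also: growth inhibition of human NOMO-1 cells measured by a cell viability assay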
Description: SANGER: Inhibition of human NOMO-1 cell growth in a cell viability assay.

NB6 = conditions: Homo sapiens, NB6;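 also: growth inhibition of NB6 cells, read out by a cell viability assay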
Description: SANGER: Inhibition of human NB6 cell growth in a cell viability assay.

BE-13 = conditions: Homo sapiens, BE-13;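 also: growth inhibition of human BE-13 cells, measured with a cell viability assay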
Description: SANGER: Inhibition of human BE-13 cell growth in a cell viability assay.

L-363 = conditions: Homo sapiens, L-363
Description: SANGER: Inhibition of human L-363 cell growth in a cell viability assay.

GOTO = conditions: Homo sapiens, GOTO;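 also: growth inhibition of GOTO cells, read out by a cell viability assay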
Description: SANGER: Inhibition of human GOTO cell growth in a cell viability assay.

LS-1034 = conditions: Homo sapiens, LS-1034
Description: SANGER: Inhibition of human LS-1034 cell growth in a cell viability assay.

NEC8 = conditions: Homo sapiens, NEC8;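 also: growth inhibition of human NEC8 cells, read out by a cell viability assay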
Description: SANGER: Inhibition of human NEC8 cell growth in a cell viability assay.

HCC2157 = conditions: Homo sapiens, HCC2157;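 also: growth inhibition of the cancer cell line, read out as cell viability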
Description: SANGER: Inhibition of human HCC2157 cell growth in a cell viability assay.

OVCAR-4 = conditions: Homo sapiens, OVCAR-4;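 also: growth inhibition of human OVCAR-4 cells, measured with a cell viability assay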
Description: SANGER: Inhibition of human OVCAR-4 cell growth in a cell viability assay.

A101D = conditions: Homo sapiens, A101D;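 also: growth inhibition of the cell line, measured with a viability assay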
Description: SANGER: Inhibition of human A101D cell growth in a cell viability assay.

KP-N-YS = conditions: Homo sapiens, KP-N-YS;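 also: cell viability assay measuring inhibition of cell line growth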
Description: SANGER: Inhibition of human KP-N-YS cell growth in a cell viability assay.

MFH-ino = conditions: Homo sapiens, MFH-ino;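 also: growth inhibition of human MFH-ino cells, read out by a cell viability assay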
Description: SANGER: Inhibition of human MFH-ino cell growth in a cell viability assay.

HC-1 = conditions: Homo sapiens, HC-1;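 also: growth inhibition of HC-1 cells measured by a cell viability assay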
Description: SANGER: Inhibition of human HC-1 cell growth in a cell viability assay.

HAL-01 = conditions: Homo sapiens, HAL-01;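 also: growth inhibition of human HAL-01 cells, read out with a cell viability assay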
Description: SANGER: Inhibition of human HAL-01 cell growth in a cell viability assay.

ES4 = conditions: Homo sapiens, ES4;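 also: growth inhibition of human ES4 cells, read out by a cell viability assay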
Description: SANGER: Inhibition of human ES4 cell growth in a cell viability assay.

NB12 = conditions: Homo sapiens, NB12;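 also: growth inhibition of human NB12 cells, read out by a cell viability assay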
Description: SANGER: Inhibition of human NB12 cell growth in a cell viability assay.

ES6 = conditions: Homo sapiens, ES6;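 also: growth inhibition of human ES6 cells, read out with a cell viability assay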
Description: SANGER: Inhibition of human ES6 cell growth in a cell viability assay.

NCI-H720 = conditions: Homo sapiens, NCI-H720;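 also: growth inhibition of human NCI-H720 cells determined by a cell viability assay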
Description: SANGER: Inhibition of human NCI-H720 cell growth in a cell viability assay.

MOLT-16 = conditions: Homo sapiens, MOLT-16;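 also: growth inhibition of human MOLT-16 cells, read out with a cell viability assay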
Description: SANGER: Inhibition of human MOLT-16 cell growth in a cell viability assay.

MPP-89 = conditions: Homo sapiens, MPP-89;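 also: growth inhibition of human MPP-89 cells, read out with a cell viability assay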
Description: SANGER: Inhibition of human MPP-89 cell growth in a cell viability assay.

COLO-824 = conditions: Homo sapiens, COLO-824
Description: SANGER: Inhibition of human COLO-824 cell growth in a cell viability assay.

A3-KAW = conditions: Homo sapiens, A3-KAW;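 also: growth inhibition of human A3-KAW cells, read out with a cell viability assay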
Description: SANGER: Inhibition of human A3-KAW cell growth in a cell viability assay.

NCI-H1650 = conditions: Homo sapiens, NCI-H1650;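 also: growth inhibition of human NCI-H1650 cells measured by a cell viability assay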
Description: SANGER: Inhibition of human NCI-H1650 cell growth in a cell viability assay.

J-RT3-T3-5 = conditions: Homo sapiens, J-RT3-T3-5;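 also: cell viability assay measuring growth inhibition of human J-RT3-T3-5 cells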
Description: SANGER: Inhibition of human J-RT3-T3-5 cell growth in a cell viability assay.

NCI-H82 = conditions: Homo sapiens, NCI-H82;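 also: growth inhibition of NCI-H82 cells, measured with a cell viability readout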
Description: SANGER: Inhibition of human NCI-H82 cell growth in a cell viability assay.

SK-MEL-1 = conditions: Homo sapiens, SK-MEL-1;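 also: growth inhibition of human SK-MEL-1 cells, read out by a cell viability assay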
Description: SANGER: Inhibition of human SK-MEL-1 cell growth in a cell viability assay.

MSTO-211H = conditions: Homo sapiens, MSTO-211H
Description: SANGER: Inhibition of human MSTO-211H cell growth in a cell viability assay.

TGW = conditions: Homo sapiens, TGW;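 also: growth inhibition of human TGW cells, read out with a cell viability assay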
Description: SANGER: Inhibition of human TGW cell growth in a cell viability assay.

SK-N-FI = conditions: Homo sapiens, SK-N-FI;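 also: cell viability assay measuring growth inhibition of human SK-N-FI cells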
Description: SANGER: Inhibition of human SK-N-FI cell growth in a cell viability assay.

TE-11 = conditions: Homo sapiens, TE-11;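 also: growth inhibition of human TE-11 cells, read out by a cell viability assay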
Description: SANGER: Inhibition of human TE-11 cell growth in a cell viability assay.

IA-LM = conditions: Homo sapiens, IA-LM;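 also: cell viability assay measuring growth inhibition of human IA-LM cells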
Description: SANGER: Inhibition of human IA-LM cell growth in a cell viability assay.

A704 = conditions: Homo sapiens, A704;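 also: growth inhibition of human A704 cells, read out with a cell viability assay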
Description: SANGER: Inhibition of human A704 cell growth in a cell viability assay.

Measured: pIC50

C#Cc1cccc(Nc2ncnc3cc(OCCOC)c(OCCOC)cc23)c1 [ERLOTINIB]
5.71: MOLT-16
< 5.70: BB65-RCC | IST-MEL1 | SW 962 | OCUB-M | CGTH-W-1 | GR-ST | NCI-H747 | TE-5 | GCIY | D283 Med | L-428 | NCI-H1395 | 8-MG-BA | SF-268 | NOMO-1 | NB6 | BE-13 | L-363 | GOTO | LS-1034 | NEC8 | HCC2157 | OVCAR-4 | A101D | KP-N-YS | MFH-ino | HC-1 | HAL-01 | ES4 | NB12 | ES6 | NCI-H720 | MPP-89 | COLO-824 | A3-KAW | NCI-H1650 | J-RT3-T3-5 | NCI-H82 | SK-MEL-1
6.83: BB30-HNC
6.23: EW-24

COc1cc(N2CCN(C)CC2)ccc1Nc1ncc2c(n1)N(C)c1ccccc1C(=O)N2C
5.57: MOLT-16
5.35: BB30-HNC | MPP-89
< 5.10: EW-24 | BB65-RCC | IST-MEL1 | SW 962 | OCUB-M | CGTH-W-1 | NCI-H747 | MSTO-211H | TE-5 | GCIY | D283 Med | L-428 | NCI-H1395 | 8-MG-BA | TGW | NOMO-1 | NB6 | BE-13 | L-363 | GOTO | LS-1034 | NEC8 | HCC2157 | OVCAR-4 | KP-N-YS | MFH-ino | HC-1 | SK-N-FI | ES4 | NB12 | ES6 | NCI-H720 | COLO-824 | NCI-H1650 | J-RT3-T3-5 | NCI-H82 | SK-MEL-1
5.67: HAL-01
5.12: SF-268 | A101D
5.37: A3-KAW
5.11: GR-ST

CC[C@H](CO)Nc1nc(NCc2ccccc2)c2ncn(C(C)C)c2n1 [SELICICLIB]
5.24: A3-KAW
< 4.80: EW-24 | IST-MEL1 | BB30-HNC | SW 962 | OCUB-M | CGTH-W-1 | GR-ST | NCI-H747 | MSTO-211H | TE-5 | D283 Med | L-428 | NCI-H1395 | 8-MG-BA | TGW | SF-268 | NOMO-1 | NB6 | BE-13 | L-363 | GOTO | LS-1034 | NEC8 | HCC2157 | OVCAR-4 | A101D | KP-N-YS | MFH-ino | HC-1 | HAL-01 | SK-N-FI | ES4 | NB12 | ES6 | NCI-H720 | MOLT-16 | MPP-89 | COLO-824 | NCI-H1650 | J-RT3-T3-5 | NCI-H82 | SK-MEL-1
4.89: GCIY
5.00: BB65-RCC

CC(=O)O[C@H]1C(=O)[C@@]2(C)[C@H]([C@H](OC(=O)c3ccccc3)[C@]3(O)C[C@H](OC(=O)[C@H](O)[C@@H](NC(=O)c4ccccc4)c4ccccc4)C(C)=C1C3(C)C)[C@]1(OC(C)=O)CO[C@@H]1C[C@@H]2O [PACLITAXEL]
8.18: SW 962 | OCUB-M
< 6.99: MSTO-211H | GCIY | D283 Med | L-428 | NCI-H1395 | NB6 | GOTO | HCC2157 | KP-N-YS | HAL-01 | SK-N-FI | NCI-H720 | MPP-89 | COLO-824 | NCI-H1650 | A704 | SK-MEL-1
7.58: IST-MEL1
7.10: LS-1034
8.10: 8-MG-BA
7.67: MOLT-16
7.62: J-RT3-T3-5
8.20: BE-13
7.02: ES6
8.57: MFH-ino
7.13: A3-KAW
8.02: A101D
7.94: SF-268
8.35: ES4
8.55: IA-LM
7.07: TGW
7.37: NCI-H82
7.25: GR-ST
7.19: EW-24
8.91: TE-11
7.26: CGTH-W-1
7.53: NCI-H747
7.60: BB65-RCC
7.83: TE-5
7.28: NEC8
7.87: L-363
8.14: HC-1
7.03: NOMO-1
8.50: BB30-HNC
8.04: OVCAR-4

N[C@@H](CSC(c1ccccc1)(c1ccccc1)c1ccccc1)C(=O)O [S-TRITYL-L-CYSTEINE]
5.49: L-428
5.98: HC-1
5.56: LS-1034
6.33: MFH-ino
5.86: IA-LM
5.42: OVCAR-4
5.92: BB30-HNC | NCI-H82
5.62: BB65-RCC | HAL-01
< 5.29: EW-24 | IST-MEL1 | CGTH-W-1 | NCI-H747 | MSTO-211H | TE-5 | D283 Med | NCI-H1395 | 8-MG-BA | TGW | NOMO-1 | GOTO | HCC2157 | KP-N-YS | ES4 | ES6 | NCI-H720 | MPP-89 | COLO-824 | NCI-H1650 | A704 | SK-MEL-1
5.72: MOLT-16
6.35: TE-11
5.94: SW 962
5.57: NEC8
5.97: BE-13
5.50: SF-268 | SK-N-FI
6.01: J-RT3-T3-5
6.08: A3-KAW
6.09: OCUB-M
5.53: GR-ST
5.41: NB6
5.74: GCIY
5.76: L-363 | A101D

— ChEMBL document CHEMBL1201861, “Genomics of Drug Sensitity in Cancer screening data, Wellcome Trust Sanger Institute”
